Measured values: patent US20260125372A1, “DYNAMIN-1-LIKE PROTEIN INHIBITORS AND USES THEREOF” (Astellas Engineered Small Molecules US, Incorporated, priority 2022, published 2026)

These molecules were tested against T1, DRP1 (Homo sapiens, UniProt O00429) (assay: AlphaLISA assay (His-DRP1 / MiD49-GST interaction)). Details: His-DRP1 200 nM, MiD49-GST 20 nM, GMP-PNP 100 uM.
T1 construct: Human DRIP1 (UniProtID: O00429.4, residues 1-699); made in house; host or cells: Escherichia coli BL21 CodonPlus DE3
Format: binding
Protocol: Human DRIP1 (UniProtID: O00429.4, residues 1-699), and human MiD49 (UnitProtIS: Q96C03.1, residues 126-454) was cloned into a pET15b vector as an N-terminal His-tag Fusion. All constructs were transformed in Escherichia coli host strain BL21 CodonPlus DE3. Bacteria was grown in LB media with 100 μg/ml ampicillin and 34 μg/ml chloramphenicol in an orbital shaker at 37° C. until OD600 reached 0.4, at which temperature was reduced to 16° C. Recombinant protein expression was expressed for 18 hr by the addition of IPTG at OD600 of about 0.8. All cultures were spun down and bacterial pellets were used for protein purification.
For His-DRP1, the pellets were resuspended in DRP-buffer A (20 mM Tris, 500 KCl, 1.89 β-ME, pH 8.0) and protease inhibitor cocktail (Roche), followed by cell disruption by sonication (400 W, pulse 3 sec on, 3 sec off, total 20 min). The lysate was centrifuged at 20,000 g and then supernatant applied to a preequilibrated Ni-NTA column with DRP-buffer A. The column was extensively washed with buffer A containing 50 mM imidazole. Purified His-DRP1 was eluted with DRP-buffer A containing 250 mM imidazole and dialyzed overnight at 4° C. (18 kDa cutoff) against DRP-buffer A to remove imidazole. For AlphaLISA, the His tag was retained on DRP1 full-length.
For MiD49-GST, the bacterial pellets were resuspended and sonicated in MID lysis buffer (25 mM Tris-HCl, pH 7.5, 500 mM NaCl, 5% glycerol, 1 mM TCEP, and 0.5% CHAPS). The lysate was pre-cleared at 20,300 g before applying to a glutathione column. Unbound proteins were washed using MID-buffer A (25 mM Tris-HCl, pH 7.5, 300 mM NaCl, 5% glycerol, 1 mM TCEP) and MID-buffer B (25 mM Tris-HCl, pH 7.5, 300 mM NaCl, 5% glycerol, 1 mM TCEP, 1 mM GSH). The protein was eluted with MID-buffer C (25 mM Tris-HCl, pH 7.5, 300 mM NaCl, 5% glycerol, 1 mM TCEP, 10 mM GSH). The target protein was concentrated in the ultra-filtration tube with MW cutoff 30 kDa and further purified by size-exclusion chromatography on a Superdex-200 column (GE Healthcare) in buffer A. Fractions containing MiD49-GST (126-454) were pooled, concentrated, flash-frozen as single-use aliquots in liquid nitrogen and stored at −80° C.
A total of 100 nl of compounds were plated in a 384-well AlphaPlate (PerkinElmer, Waltham, MA) at concentrations 100 uM to […] in DMSO (dilution by 3.165 for 11 concentration levels). Recombinant His-DRP1 (200 nM), MiD49-GST (20 nM), and GMP-PNP (100 uM) were mixed in assay buffer (PBS with 1.5% BSA, 1 mM DTT). Five microliters of the protein mixture were added to the plate and incubate at room temperature for 30 min. Glutathione donor beads and nickel chelate acceptor beads were diluted and mixed in assay buffer to obtain 40 μg/ml of each bead. Five microliters of the mixed beads were added to each well on the microplate leading to a final bead concentration of 20 µg/ml per well. The sealed plate was incubated at room temperature for 60 min and protected from light. The AlphaLISA signal was detected with an EnVision Multilabel Reader (excitation at 680 and emission 615 nm). GraphPad Prism was used to calculate the IC50 by applying sigmoidal dose-response fit (variable slope).

T1 sequence (O00429 1-699 isoform O00429-4): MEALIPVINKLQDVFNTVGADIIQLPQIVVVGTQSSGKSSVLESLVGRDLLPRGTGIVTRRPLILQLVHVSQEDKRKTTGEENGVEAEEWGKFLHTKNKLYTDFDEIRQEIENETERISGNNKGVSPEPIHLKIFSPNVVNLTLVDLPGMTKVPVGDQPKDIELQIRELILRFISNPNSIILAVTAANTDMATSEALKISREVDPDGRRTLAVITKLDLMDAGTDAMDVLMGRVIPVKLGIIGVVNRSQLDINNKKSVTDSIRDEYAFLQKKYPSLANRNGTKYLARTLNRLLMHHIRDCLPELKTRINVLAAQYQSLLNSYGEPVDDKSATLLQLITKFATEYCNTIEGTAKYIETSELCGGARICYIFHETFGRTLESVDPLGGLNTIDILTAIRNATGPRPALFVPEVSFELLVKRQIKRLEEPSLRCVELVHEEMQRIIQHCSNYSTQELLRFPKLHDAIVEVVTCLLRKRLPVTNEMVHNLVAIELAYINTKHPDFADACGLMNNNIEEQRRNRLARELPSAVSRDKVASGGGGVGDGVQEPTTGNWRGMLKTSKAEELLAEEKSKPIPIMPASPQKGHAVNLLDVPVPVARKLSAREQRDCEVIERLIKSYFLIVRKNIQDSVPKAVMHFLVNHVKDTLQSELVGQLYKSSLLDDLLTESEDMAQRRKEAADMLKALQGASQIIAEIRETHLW

IC50 [µM] | Structure (SMILES)
0.5 to 1 | COCCOc1cc(-c2cncs2)nc2ccc(NC(=O)[C@@H]3C[C@H]3C#N)cc12 (racemic) [Example 19, trans-2-cyano-N-(4-(2-methoxyethoxy)-2-(thiazol-5-yl)quinolin-6-yl)cyclopropane-1-carboxamide]
< 0.5 | COCCOc1cc(-c2cncs2)nc2ccc(NC(=O)C3COC3)cc12 [Example 1, N-(4-(2-methoxyethoxy)-2-(thiazol-5-yl)quinolin-6-yl)oxetane-3-carboxamide]
< 0.5 | CCOc1cc(-n2cnc(C)c2)nc2ccc(NC(=O)C3COC3)cc12 [Example 2, N-(4-ethoxy-2-(4-methyl-1H-imidazol-1-yl)quinolin-6-yl)oxetane-3-carboxamide]
< 0.5 | CCOc1cc(-c2cncs2)nc2ccc(NC(=O)C3COC3)cc12 [Example 3, N-(4-ethoxy-2-(thiazol-5-yl)quinolin-6-yl)oxetane-3-carboxamide]
0.5 to 1 | CCOc1cc(-c2cncs2)nc2ccc(NC(=O)C34CC(C3)C4)cc12 [Example 4, N-(4-ethoxy-2-(thiazol-5-yl)quinolin-6-yl)bicyclo[1.1.1]pentane-1-carboxamide]
0.5 to 1 | COc1cc(-c2cncs2)nc2ccc(NC(=O)C3COC3)cc12 [Example 5, N-(4-methoxy-2-(thiazol-5-yl)quinolin-6-yl) oxetane-3-carboxamide]
< 0.5 | CCOc1cc(-c2cnc(C)s2)nc2ccc(NC(=O)C3COC3)cc12 [Example 6, N-(4-ethoxy-2-(2-methylthiazol-5-yl)quinolin-6-yl) oxetane-3-carboxamide]
< 0.5 | CCOc1cc(-c2cnc(OC)s2)nc2ccc(NC(=O)C3COC3)cc12 [Example 7, N-(4-ethoxy-2-(2-methoxythiazol-5-yl)quinolin-6-yl) oxetane-3-carboxamide]
0.5 to 1 | CCOc1cc(-c2cnc(C3CC3)s2)nc2ccc(NC(=O)C3COC3)cc12 [Example 8, N-(2-(2-cyclopropylthiazol-5-yl)-4-ethoxyquinolin-6-yl) oxetane-3-carboxamide]
< 0.5 | O=C(Nc1ccc2nc(-c3cncs3)cc(OCCO)c2c1)C1COC1 [Example 9, N-(4-(2-hydroxyethoxy)-2-(thiazol-5-yl)quinolin-6-yl) oxetane-3-carboxamide]
1 to 10 | O=C(Nc1ccc2nc(-c3cncs3)cc(OCCO)c2c1)C(F)(F)F [Example 10, 2,2,2-trifluoro-N-(4-(2-hydroxyethoxy)-2-(thiazol-5-yl)quinolin-6-yl)acetamide]
0.5 to 1 | COCCOc1cc(-c2cnc(C)s2)nc2ccc(NC(=O)C3COC3)cc12 [Example 11, N-(4-(2-methoxyethoxy)-2-(2-methylthiazol-5-yl)quinolin-6-yl)oxetane-3-carboxamide]
1 to 10 | CCOc1cc(-c2cnc(Cl)s2)nc2ccc(NC(=O)C3COC3)cc12 [Example 12, N-(2-(2-chlorothiazol-5-yl)-4-ethoxyquinolin-6-yl)oxetane-3-carboxamide]
1 to 10 | COCCOc1cc(-c2cncs2)nc2ccc(NC(=O)CO)cc12 [Example 13, 2-hydroxy-N-(4-(2-methoxyethoxy)-2-(thiazol-5-yl)quinolin-6-yl) acetamide]
1 to 10 | COCCOc1cc(-c2cncs2)nc2ccc(NC(=O)[C@H](C)O)cc12 [Example 14, (S)-2-hydroxy-N-(4-(2-methoxyethoxy)-2-(thiazol-5-yl)quinolin-6-yl)propanamide]
1 to 10 | COCCOc1cc(-c2cncs2)nc2ccc(NC(=O)[C@@H](C)O)cc12 [Example 15, (R)-2-hydroxy-N-(4-(2-methoxyethoxy)-2-(thiazol-5-yl)quinolin-6-yl)propanamide]

IC50 [µM] | Structure (SMILES)
< 0.5 | COCCOc1cc(-c2cncs2)nc2ccc(NC(=O)[C@H]3C[C@@H](O)C3)cc12 [Example 16, cis-3-hydroxy-N-(4-(2-methoxyethoxy)-2-(thiazol-5-yl)quinolin-6-yl)cyclobutane-1-carboxamide]
< 0.5 | COCCOc1cc(-c2cncs2)nc2ccc(NC(=O)[C@H]3C[C@H](O)C3)cc12 [Example 17, trans-3-hydroxy-N-(4-(2-methoxyethoxy)-2-(thiazol-5-yl)quinolin-6-yl)cyclobutane-1-carboxamide]
< 0.5 | COCCOc1cc(-c2cncs2)nc2ccc(NC(=O)C3CC3C)cc12 (centres unmarked) [Example 18, N-(4-(2-methoxyethoxy)-2-(thiazol-5-yl)quinolin-6-yl)-2-methylcyclopropane-1-carboxamide]
1 to 10 | COCCOc1cc(-c2cncs2)nc2ccc(NC(=O)C3CC3C(F)(F)F)cc12 (centres unmarked) [Example 20, N-(4-(2-methoxyethoxy)-2-(thiazol-5-yl)quinolin-6-yl)-2-(trifluoromethyl)cyclopropane-1-carboxamide]
1 to 10 | COCCOc1cc(-c2cncs2)nc2ccc(NC(=O)COC)cc12 [Example 21, 2-methoxy-N-(4-(2-methoxyethoxy)-2-(thiazol-5-yl)quinolin-6-yl)acetamide]
< 0.5 | COCCOc1cc(-c2cncs2)nc2ccc(NC(=O)C(C)OC)cc12 (centres unmarked) [Example 22, 2-methoxy-N-(4-(2-methoxyethoxy)-2-(thiazol-5-yl)quinolin-6-yl)propanamide]
< 0.5 | COCCOc1cc(-c2cncs2)nc2ccc(NC(=O)C3CCCOC3)cc12 (centres unmarked) [Example 23, N-(4-(2-methoxyethoxy)-2-(thiazol-5-yl)quinolin-6-yl)tetrahydro-2H-pyran-3-carboxamide]
0.5 to 1 | COCCOc1cc(-c2cncs2)nc2ccc(NC(=O)CCOC)cc12 [Example 24, 3-methoxy-N-(4-(2-methoxyethoxy)-2-(thiazol-5-yl)quinolin-6-yl)propanamide]
< 0.5 | CCCOC(C)C(=O)Nc1ccc2nc(-c3cncs3)cc(OCCOC)c2c1 (centres unmarked) [Example 25, N-(4-(2-methoxyethoxy)-2-(thiazol-5-yl)quinolin-6-yl)-2-propoxypropanamide]
< 0.5 | CCOC(C)C(=O)Nc1ccc2nc(-c3cncs3)cc(OCCOC)c2c1 (centres unmarked) [Example 26, 2-ethoxy-N-(4-(2-methoxyethoxy)-2-(thiazol-5-yl)quinolin-6-yl)propanamide]
0.5 to 1 | COCCOc1cc(-c2cncs2)nc2ccc(NC(=O)C(F)(F)CO)cc12 [Example 27, 2,2-difluoro-3-hydroxy-N-(4-(2-methoxyethoxy)-2-(thiazol-5-yl)quinolin-6-yl)propanamide]
< 0.5 | COCCOc1cc(-c2cncs2)nc2ccc(NC(=O)C(C)C#N)cc12 (centres unmarked) [Example 28, 2-cyano-N-(4-(2-methoxyethoxy)-2-(thiazol-5-yl)quinolin-6-yl)propanamide]
> 10 | COCCOc1cc(-c2cncs2)nc2ccc(NC(=O)C3(OC)CC3)cc12 [Example 29, 1-methoxy-N-(4-(2-methoxyethoxy)-2-(thiazol-5-yl)quinolin-6-yl)cyclopropane-1-carboxamide]
1 to 10 | COCCOc1cc(-c2cncs2)nc2ccc(NC(=O)C3CC(F)(F)C3)cc12 [Example 30, 3,3-difluoro-N-(4-(2-methoxyethoxy)-2-(thiazol-5-yl)quinolin-6-yl)cyclobutane-1-carboxamide]
1 to 10 | COCCOc1cc(-c2cncs2)nc2ccc(NC(=O)C34CC(C3)C4)cc12 [Example 31, N-(4-(2-methoxyethoxy)-2-(thiazol-5-yl)quinolin-6-yl)bicyclo[1.1.1]pentane-1-carboxamide]
0.5 to 1 | COCCOc1cc(-c2cncs2)nc2ccc(NC(=O)C(C)COC)cc12 (centres unmarked) [Example 32, 3-methoxy-N-(4-(2-methoxyethoxy)-2-(thiazol-5-yl)quinolin-6-yl)-2-methylpropanamide]
